Data published in US20250230171A1 (MOMA Therapeutics, Inc., priority 2023, published 2025).
Read-outs that look alike come from different tables or passages of the source.

How the values were obtained:
[1] = target: biotinylated Avi-POLθ[2-894] (Homo sapiens (Human), UniProt O75417); experiment: POLθ ATPase assay (ADP-Glo); details: n=2, read-out: Biochemical ATPase ADPGlo IC50
DLD1 BRCA2 (−/−) cells = experiment: 7-day cell viability assay (CellTiter-Glo), DLD1 BRCA2 (−/−); format: cell-based, human; details: Homo sapiens, DLD-1, 168 h, n=2, read-out: Viability IC50 (uM) DLD1 BRCA2 null
In short: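 7-day growth assay in DLD1 cells with or without BRCA2; seeding densities chosen to keep log-linear growth. Compound: 10 uM top, 3-fold, 9 points. Endpoint: CTG ATP luminescence at RT.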

DLD1 WT cells = experiment: 7-day cell viability assay (CellTiter-Glo), DLD1 parental (WT); format: cell-based, human; details: Homo sapiens, DLD-1, 168 h, n=2

biotinylated Avi-POLθ[2-894], sequence (O75417 2-894): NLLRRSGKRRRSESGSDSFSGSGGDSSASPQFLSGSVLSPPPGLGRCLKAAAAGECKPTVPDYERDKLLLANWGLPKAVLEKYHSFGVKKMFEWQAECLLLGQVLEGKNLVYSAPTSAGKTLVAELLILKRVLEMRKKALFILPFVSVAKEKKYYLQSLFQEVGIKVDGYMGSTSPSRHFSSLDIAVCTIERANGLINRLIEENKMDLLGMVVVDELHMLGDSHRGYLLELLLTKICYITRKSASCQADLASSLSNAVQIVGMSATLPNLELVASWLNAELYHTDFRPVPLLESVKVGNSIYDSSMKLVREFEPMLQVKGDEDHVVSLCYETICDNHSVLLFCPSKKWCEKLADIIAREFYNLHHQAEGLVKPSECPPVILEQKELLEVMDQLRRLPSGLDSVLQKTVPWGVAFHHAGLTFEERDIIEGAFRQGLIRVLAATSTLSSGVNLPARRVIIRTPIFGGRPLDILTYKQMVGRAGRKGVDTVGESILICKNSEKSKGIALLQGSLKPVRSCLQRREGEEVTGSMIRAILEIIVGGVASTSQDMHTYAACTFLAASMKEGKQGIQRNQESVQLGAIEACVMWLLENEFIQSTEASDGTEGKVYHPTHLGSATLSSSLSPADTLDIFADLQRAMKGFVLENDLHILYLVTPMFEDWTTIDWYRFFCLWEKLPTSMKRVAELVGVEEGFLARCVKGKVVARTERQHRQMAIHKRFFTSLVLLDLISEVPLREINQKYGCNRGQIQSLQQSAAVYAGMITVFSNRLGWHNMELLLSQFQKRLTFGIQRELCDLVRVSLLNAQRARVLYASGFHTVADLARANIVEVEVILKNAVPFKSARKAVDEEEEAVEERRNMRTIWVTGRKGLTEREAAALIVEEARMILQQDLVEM

Compound	IC50 ([1]; POLθ ATPase, ADP-Glo) [nM]	IC50 (DLD1 BRCA2 (−/−) cells; 7-day CellTiter-Glo) [µM]	IC50 (DLD1 WT cells; 7-day CellTiter-Glo) [µM]	IC50 [1] [nM]	IC50 (DLD1 BRCA2 (−/−) cells; 7-day viability) [µM]	IC50 (DLD1 WT cells; 7-day viability) [µM]
COc1cnc(Cl)cc1-c1cc(C)ncc1C(=O)Nc1nc2c(s1)CN(C(=O)c1ccc(C(F)(F)F)nc1OC)[C@H]2C (single isomer, unassigned) [Example 1041, (S or R)-2′-chloro-5′-methoxy-N-(5-(2-methoxy-6-(trifluoromethyl)nicotinoyl)-4-methyl-5,6-dihydro-4H-pyrrolo[3,4-d]thiazol-2-yl)-6-methyl-[4,4′-bipyridine]-3-carboxamide]	1 to 15	0.001 to 0.1	≥ 10	–	–	–
COc1cnc(C(F)F)nc1-c1cc(C)ncc1C(=O)Nc1nc2c(s1)CN(C(=O)c1ccc(C(F)(F)F)nc1OC)C2 [Example 1042, 4-(2-(difluoromethyl)-5-methoxypyrimidin-4-yl)-N-(5-(2-methoxy-6-(trifluoromethyl)nicotinoyl)-5,6-dihydro-4H-pyrrolo[3,4-d]thiazol-2-yl)-6-methylnicotinamide]	1 to 15	0.001 to 0.1	≥ 10	–	–	–
COc1cnc(Cl)cc1-c1cc(C)ncc1C(=O)Nc1nc2c(s1)CN(C(=O)C1CC(C(F)F)C1)C2 (mixture of isomers) [Example 201]	–	–	–	1 to 15	0.1 to 0.25	≥ 10
COc1cnc(Cl)cc1-c1cc(C)ncc1C(=O)Nc1nc2c(s1)CN(C(=O)c1ccc(C(F)(F)F)nc1)C2 [Example 42, 2′-chloro-5′-methoxy-6-methyl-N-(5-(6-(trifluoromethyl)nicotinoyl)-5,6-dihydro-4H-pyrrolo[3,4-d]thiazol-2-yl)-[4,4′-bipyridine]-3-carboxamide]	–	–	–	1 to 15	0.001 to 0.1	≥ 10
COc1ccc(C#N)cc1-c1cc(C)ncc1C(=O)Nc1nc2c(s1)CN(S(=O)(=O)NC1CC1)C2	–	–	–	1 to 15	≥ 2	≥ 10
COc1cnc(Cl)cc1-c1cc(C)ncc1C(=O)Nc1nc2c(s1)CN(C(=O)c1nccc(Cl)c1C)C2	1 to 15	0.001 to 0.1	≥ 10	–	–	–
COc1ccc(C#N)cc1-c1cc(C)ncc1C(=O)Nc1nc2c(s1)CN(S(=O)(=O)NCC(C)C)C2	–	–	–	1 to 15	0.5 to 2	≥ 10
COc1cnc(Cl)cc1-c1cc(C)ncc1C(=O)Nc1nc2c(s1)CN(C(=O)c1ccc(C(F)F)cn1)C2 [Example 9, 2′-chloro-N-(5-(5-(difluoromethyl)picolinoyl)-5,6-dihydro-4H-pyrrolo[3,4-d]thiazol-2-yl)-5′-methoxy-6-methyl-[4,4′-bipyridine]-3-carboxamide]	–	–	–	1 to 15	0.001 to 0.1	≥ 10
COc1cnc(Cl)cc1-c1cc(C)ncc1C(=O)Nc1nc2c(s1)CN(C(=O)[C@H]1CC[C@@H](OC)CC1)C2 [Example 48, 2′-chloro-5′-methoxy-N-(5-((1s,4s)-4-methoxycyclohexane-1-carbonyl)-5,6-dibydro-4H-pyrrolo[3,4-d]thiazol-2-yl)-6-methyl-[4,4′-bipyridine]-3-carboxamide]	–	–	–	1 to 15	0.001 to 0.1	≥ 10
COc1cnc(Cl)cc1-c1cc(C)ncc1C(=O)Nc1nc2c(s1)CN(C(=O)c1nccc(Cl)c1OC)C2 [Example 399, 2′-chloro-N-(5-(4-chloro-3-methoxypicolinoyl)-5,6-dihydro-4H-pyrrolo[3,4-d]thiazol-2-yl)-5′-methoxy-6-methyl-[4,4′-bipyridine]-3-carboxamide]	–	–	–	1 to 15	0.001 to 0.1	≥ 10
COc1ccccc1-c1cc(C)ncc1C(=O)Nc1nc2c(s1)CN(C(=O)OC(C)(C)C)C2 [Example 314]	–	–	–	50 to 150	0.5 to 2	2 to 5
COc1cnc(Cl)cc1-c1cc(C)ncc1C(=O)Nc1nc2c(s1)CN(C(=O)c1cc(Cl)n(C)n1)C2 [Example 73, 2′-chloro-N-(5-(5-chloro-1-methyl-1H-pyrazole-3-carbonyl)-5,6-dihydro-4H-pyrrolo[3,4-d]thiazol-2-yl)-5′-methoxy-6-methyl-[4,4′-bipyridine]-3-carboxamide]	–	–	–	1 to 15	0.001 to 0.1	0.001 to 0.5
COc1cnc(Cl)cc1-c1cc(C)ncc1C(=O)Nc1nc2c(s1)CN(C(=O)c1ncc(C(F)(F)F)cn1)C2 [Example 37, 2′-chloro-5′-methoxy-6-methyl-N-(5-(5-(trifluoromethyl)pyrimidine-2-carbonyl)-5,6-dihydro-4H-pyrrolo[3,4-d]thiazol-2-yl)-[4,4′-bipyridine]-3-carboxamide]	–	–	–	1 to 15	0.001 to 0.1	≥ 10
COc1cn2cncc2cc1-c1cc(C)ncc1C(=O)Nc1nc2c(s1)CN(C(=O)c1c(Cl)cnn1C)C2	–	–	–	1 to 15	0.1 to 0.25	≥ 10
COc1ccc(C#N)cc1-c1cc(C)ncc1C(=O)Nc1nc2c(s1)CN(C(=O)[C@H]1C[C@@H](OC)C1)C2	–	–	–	1 to 15	0.5 to 2	≥ 10
COc1ccc(C(=O)N2Cc3nc(NC(=O)c4cnc(C)cc4-c4cc(Cl)ncc4OC)sc3C2)c(Cl)n1	1 to 15	0.001 to 0.1	≥ 10	–	–	–
COc1cnc(Cl)cc1-c1cc(C)ncc1C(=O)Nc1nc2c(s1)CN(C(=O)c1cc(C(C)C)n(C)n1)C2 [Example 95, 2′-chloro-N-(5-(5-isopropyl-1-methyl-1H-pyrazole-3-carbonyl)-5,6-dihydro-4H-pyrrolo[3,4-d]thiazol-2-yl)-5′-methoxy-6-methyl-[4,4′-bipyridine]-3-carboxamide]	–	–	–	1 to 15	0.001 to 0.1	≥ 10
COc1cnc(Cl)cc1-c1cc(C)ncc1C(=O)Nc1nc2c(s1)CN(C(=O)c1cncc(Cl)c1)C2 [Example 28, 2′-chloro-N-(5-(5-chloronicotinoyl)-5,6-dihydro-4H-pyrrolo[3,4-d]thiazol-2-yl)-5′-methoxy-6-methyl-[4,4′-bipyridine]-3-carboxamide]	–	–	–	1 to 15	0.001 to 0.1	0.5 to 2
COc1ccccc1-c1cc(C)ncc1C(=O)Nc1nc2c(s1)CN(CC1CCCCC1)CC2	–	–	–	≥ 900	≥ 2	≥ 10
COc1cnc(Cl)cc1-c1cc(C)ncc1C(=O)Nc1nc2c(s1)CN(C(=O)c1ccc(C(F)(F)F)nn1)C2 [Example 14, 2′-chloro-5′-methoxy-6-methyl-N-(5-(6-(trifluoromethyl)pyridazine-3-carbonyl)-5,6-dihydro-4H-pyrrolo[3,4-d]thiazol-2-yl)-[4,4′-bipyridine]-3-carboxamide]	–	–	–	1 to 15	0.001 to 0.1	≥ 10
COc1ccc(Cl)c(C(=O)N2Cc3nc(NC(=O)c4cnc(C)cc4-c4cc(Cl)ncc4OC)sc3C2)n1	1 to 15	0.001 to 0.1	≥ 10	–	–	–
COc1cnc(Cl)cc1-c1cc(C)ncc1C(=O)Nc1nc2c(s1)CN(C(=O)c1cc(C)n(C(F)F)n1)C2 [Example 52, 2′-chloro-N-(5-(1-(difluoromethyl)-5-methyl-1H-pyrazole-3-carbonyl)-5,6-dihydro-4H-pyrrolo[3,4-d]thiazol-2-yl)-5′-methoxy-6-methyl-[4,4′-bipyridine]-3-carboxamide]	–	–	–	1 to 15	0.001 to 0.1	≥ 10
COc1ccc(C#N)cc1-c1cc(C)ncc1C(=O)Nc1nc2c(s1)CN(C(=O)C1CC(OC(C)C)C1)C2 (racemic) [Example 166]	–	–	–	1 to 15	0.25 to 0.5	≥ 10
COc1ccc(C#N)cc1-c1cc(C)ncc1C(=O)Nc1nc2c(s1)CN(S(=O)(=O)NC(C)C)C2 [Example 269]	–	–	–	1 to 15	≥ 2	≥ 10
COc1cnc(Cl)cc1-c1cc(C)ncc1C(=O)Nc1nc2c(s1)CN(C(=O)c1ccc(C(F)F)nc1Cl)C2	1 to 15	0.001 to 0.1	≥ 10	–	–	–
COc1cnc(Cl)cc1-c1cc(C)ncc1C(=O)Nc1nc2c(s1)CN(C(=O)c1nn(C)cc1Cl)C2 (racemic) [Example 152, (Racemic)-4-(5-Cyano-2-methoxyphenyl)-6-methyl-N-(6-(phenylamino)-4,5,6,7-tetrahydrobenzo[d]thizaol-2-yl)nicotinamide]	–	–	–	1 to 15	0.1 to 0.25	≥ 10
COc1cnc(Cl)cc1-c1cc(C)ncc1C(=O)Nc1nc2c(s1)CN(C(=O)[C@@H]1CCCCO1)C2 [Example 216, (S) 2′-chloro-5′-methoxy-6-methyl-N-(5-(tetrahydro-2H-pyran-2-carbonyl)-5,6-dihydro-4H-pyrrolo[3,4-d]thiazol-2-yl)-[4,4′-bipyridine]-3-carboxamide]	–	–	–	1 to 15	0.1 to 0.25	≥ 10
COc1cnc(Cl)cc1-c1cc(C)ncc1C(=O)Nc1nc2c(s1)CN(C(=O)C1CC3(CCC3)C1)C2 [Example 8, 2′-chloro-5′-methoxy-6-methyl-N-(5-(spiro[3.3]heptane-2-carbonyl)-5,6-dihydro-4H-pyrrolo[3,4-d]thiazol-2-yl)-[4,4′-bipyridine]-3-carboxamide]	–	–	–	1 to 15	0.001 to 0.1	5 to 10
COc1cnc(Cl)cc1-c1cc(C)ncc1C(=O)Nc1nc2c(s1)CN(C(=O)C1CC3(C1)CC(F)(F)C3)C2 [Example 64, 2′-chloro-N-(5-(6,6-difluorospiro[3.3]heptane-2-carbonyl)-5,6-dihydro-4H-pyrrolo[3,4-d]thiazol-2-yl)-5′-methoxy-6-methyl-[4,4′-bipyridine]-3-carboxamide]	–	–	–	1 to 15	0.001 to 0.1	5 to 10
COc1ccc(C#N)cc1-c1cc(C)ncc1C(=O)Nc1nc2c(s1)CN(C(=O)c1ccccn1)C2 [Example 276]	–	–	–	1 to 15	≥ 2	≥ 10
